The results in this text go back to patent publication US10316017B2, “COT modulators and methods of use thereof” (Gilead Sciences, Inc., priority 2015, dated 2019).

The EC50 is the concentration that produces a half-maximal response. As a reminder, the IC50 is the concentration that gives 50% inhibition.

For assay [1], the system named is TNFα production in LPS-stimulated human monocytes. As to the kind of experiment: Cot Monocyte TNFα Cell Based Assay. The note with it: Homo sapiens, Monocyte, LPS-stimulated human monocytes, TNFα TR-FRET; read-out: EC50 TNF. In outline: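 Cells at 5,000/well were pretreated with compound for 1 h at 37 °C (0.5% DMSO final), then stimulated with 50 pg/ml LPS for 4 h at 37 °C. Supernatant TNFα was measured by two-antibody TR-FRET after overnight room-temperature incubation; values are percent of control between unstimulated and stimulated wells.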
(In general: TR-FRET usually uses a lanthanide donor and a delayed reading to cut background.)

Assay [2] deals with T1, human Cot catalytic domain (30-397 amino acids) (Homo sapiens, UniProt P41279).
T1 construct: Purified recombinant human Cot catalytic domain (30-397 amino acids) was purchased from Cama Biosciences; purchased Cama Biosciences (so in the source)
As to the kind of experiment: High Throughput Cot Biochemical Assay (KinEASE TR-FRET). The note with it: Cot KinEASE TR-FRET, 400 μM ATP; read-out: IC50 HTRF. In a few lines:
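Reaction of 5 nM recombinant human Cot catalytic domain (aa 30-397) with 1 μM STK3 peptide (XL665-labeled) and 400 μM ATP in 10 mM MOPS pH 7.0, 10 mM MgOAc, 1 mM DTT, 0.5 mg/mL BSA, 0.1% DMSO. Phosphopeptide detected by TR-FRET with europium anti-phospho antibody.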

Each structure is given as a SMILES string.

T1 sequence (P41279 30-397): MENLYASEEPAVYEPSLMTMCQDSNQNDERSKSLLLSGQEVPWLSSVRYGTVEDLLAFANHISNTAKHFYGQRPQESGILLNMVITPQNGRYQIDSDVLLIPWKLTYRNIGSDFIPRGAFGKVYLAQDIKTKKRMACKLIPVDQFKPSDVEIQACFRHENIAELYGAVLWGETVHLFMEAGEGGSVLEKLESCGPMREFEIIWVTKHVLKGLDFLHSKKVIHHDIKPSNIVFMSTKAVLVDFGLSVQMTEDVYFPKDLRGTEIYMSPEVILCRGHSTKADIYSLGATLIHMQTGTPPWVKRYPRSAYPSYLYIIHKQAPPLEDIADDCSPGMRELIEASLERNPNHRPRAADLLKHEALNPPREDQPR

Turning to `[2H]C(Nc1cc(Cl)c2ncc(C#N)c(NCC(C)(C)C)c2c1)(c1cn(C2(C3CC3)CC2)nn1)c1ccccc1Cl` (stereo not shown) [Example 958, 6-(((1-([1,1'-bi(cyclopropan)]-1-yl)-1H-1,2,3-triazol-4-yl)(2-chlorophenyl)methyl-d)amino)-8-chloro-4-(neopentylamino)quinoline-3-carbonitrile], in assay [1], the EC50 stood at 0.46 µM. For the same compound, the IC50 in assay [2] is 0.031 µM.

Regarding `[2H][C@@](Nc1cc(Cl)c2ncc(C#N)c(NCC(C)(C)C)c2c1)(c1cn(C2(c3cccnc3)CC2)nn1)c1ccccc1Cl` [Example 960, 8-chloro-6-(((2-chlorophenyl)(1-(1-(pyridin-3-yl)cyclopropyl)-1H-1,2,3-triazol-4-yl)methyl-d)amino)-4-(neopentylamino)quinoline-3-carbonitrile], the half-maximal effective concentration (EC50) in assay [1] came out at 0.086 µM. In addition, in assay [2], the half-maximal inhibitory concentration (IC50) is 0.012 µM.

Regarding `N#CCC[C@@H](Nc1c(C#N)cnc2c(C#N)cc(N[C@@H](c3ccccc3)c3cn(C4(C#N)CC4)nn3)cc12)c1ccccc1` [Example 961, 4-(((R)-3-cyano-1-phenylpropyl)amino)-6-(((S)-(1-(1-cyanocyclopropyl)-1H-1,2,3-triazol-4-yl)(phenyl)methyl)amino) quinoline-3,8-dicarbonitrile], the EC50 in assay [1] was 0.021 µM. Moreover, the IC50 in assay [2] turned out to be 0.001 µM.

For `CC(C)(C)CNc1c(C#N)cnc2c(C#N)cc(N[C@H](c3cn(C4(C)CC4)nn3)c3ccccc3Cl)cc12` [Example 962, (S)-6-(((2-chlorophenyl)(1-(1-methylcyclopropyl)-1H-1,2,3-triazol-4-yl)methyl)amino)-4-(neopentylamino)quinoline-3,8-dicarbonitrile], the concentration for a half-maximal effect (EC50) in assay [1] was found to be 0.116 µM. In addition, in assay [2], the IC50 stood at 0.007 µM.

For the compound `CC(C)(C)CNc1c(C#N)cnc2c(C#N)cc(N[C@H](c3cn(CC(N)=O)nn3)c3ccccc3Cl)cc12` [Example 963, (S)-2-(4-((2-chlorophenyl) ((3,8-dicyano-4-(neopentylamino)quinolin-6-yl)amino)methyl)-1H-1,2,3-triazol-1-yl)acetamide], the concentration for a half-maximal effect (EC50) in assay [1] stood at 0.777 µM. The IC50 in assay [2] is 0.003 µM.

With `[2H][C@](Nc1cc(Cl)c2ncc(C#N)c(NCC(C)(C)C)c2c1)(c1cn(C2(CO)COC2)nn1)c1ccccc1Cl` [Example 965, 8-chloro-6-(((2-chlorophenyl) (1-(3-(hydroxymethyl)oxetan-3-yl)-1H-1,2,3-triazol-4-yl)methyl-d)amino)-4-(neopentylamino) quinoline-3-carbonitrile], the EC50 in assay [1] amounted to 0.286 µM. For the same compound, the IC50 in assay [2] is 0.014 µM.

With `[2H][C@](Nc1cc(Cl)c2ncc(C#N)c(Nc3cccc(Cl)c3OC(F)(F)F)c2c1)(c1ccc(F)cc1)c1cn(C2CC2)nn1` [Example 966, (S)-8-chloro-4-((3-chloro-2-(trifluoromethoxy)phenyl)amino)-6-(((1-cyclopropyl-1H-1,2,3-triazol-4-yl)(4-fluorophenyl)methyl-d)amino)quinoline-3-carbonitrile], the EC50 in assay [1] was at least 1 µM. For the same compound, the half-inhibitory concentration (IC50) in assay [2] amounted to 0.086 µM.

On to `[2H][C@](Nc1cc(Cl)c2ncc(C#N)c(NC3(C(F)F)CC3)c2c1)(c1ccc(F)cc1)c1cn(C2CC2)nn1` [Example 967], for which the EC50 in assay [1] was at least 1 µM. Moreover, in assay [2], the half-inhibitory concentration (IC50) was found to be 0.714 µM.

Turning to `CC(C)(C)CNc1c(C#N)cnc2c(C#N)cc(N[C@@H](c3ccc(F)cc3)c3cn(C4(c5ccccn5)CC4)nn3)cc12` [Example 968, (S)-6-(((4-fluorophenyl)(1-(1-(pyridin-2-yl)cyclopropyl)-1H-1,2,3-triazo1-4-yl)methyl)amino)-4-(neopentylamino) quinoline-3,8-dicarbonitrile], the EC50 in assay [1] is 0.11 µM. For the same compound, the 50% inhibitory concentration (IC50) in assay [2] is 0.017 µM.

On to `[2H]C(Nc1cc(C#N)c2ncc(C#N)c(NCC(C)(C)C)c2c1)(c1cccc(C#N)c1)c1cn(C2(C(N)=O)CC2)nn1` (stereo not shown) [Example 969, 1-(4-((3-cyanophenyl)((3,8-dicyano-4-(neopentylamino)quinolin-6-yl)amino)methyl-d)-1H-1,2,3-triazol-1-yl)cyclopropane-1-carboxamide], for which, in assay [1], the EC50 is at least 1 µM. The IC50 in assay [2] is 0.001 µM.

In the case of `CC(C)(C)CNc1c(C#N)cnc2c(Cl)cc(N[C@@H](c3ccccc3)c3cn(C(F)(F)C(N)=O)nn3)cc12` [Example 970, (S)-2-(4-(((8-chloro-3-cyano-4-(neopentylamino)quinolin-6-yl)amino)(phenyl)methyl)-1H-1,2,3-triazol-1-yl)-2,2-difluoroacetamide], in assay [1], the concentration for a half-maximal effect (EC50) was 0.202 µM. For the same compound, in assay [2], the IC50 was 0.008 µM.

Regarding `[2H][C@](Nc1cc(Cl)c2ncc(C#N)c(NCC(C)(C)C)c2c1)(c1cccc(C#N)c1)c1cn(C(F)(F)C(N)=O)nn1` [Example 971, (S)-2-(4-(((8-chloro-3-cyano-4-(neopentylamino)quinolin-6-yl)amino)(3-cyanophenyl)methyl-d)-1H-1,2,3-triazol-1-yl)-2,2-difluoroacetamide], in assay [1], the EC50 is 0.27 µM. Further, the IC50 in assay [2] stood at 0.004 µM.

With `CC[C@@H](Nc1c(C#N)cnc2c(Cl)cc(N[C@H](c3cn(C(F)(F)C(N)=O)nn3)c3ccccc3Cl)cc12)c1ccccc1` [Example 972, 2-(4-((S)-((8-chloro-3-cyano-4-(((R)-1-phenylpropyl)amino)quinolin-6-yl)amino) (2-chlorophenyl)methyl)-1H-1,2,3-triazol-1-yl)-2,2-difluoroacetamide], in assay [1], the EC50 came out at 0.636 µM. In assay [2], the IC50 was 0.027 µM.

Turning to `CC(C)(C)CNc1c(C#N)cnc2c(C#N)cc(N[C@@H](c3ccc(F)cc3)c3cn(C4(C5CC5)CC4)nn3)cc12` [Example 973, (S)-6-(((1-([1,1'-bi (cyclopropan)]-1-yl)-1H-1,2,3-triazol-4-yl)(4-fluorophenyl)methyl)amino)-4-(neopentylamino) quinoline-3,8-dicarbonitrile], in assay [1], the EC50 was found to be 0.067 µM. Besides, the IC50 in assay [2] turned out to be 0.009 µM.

On to `CC(C)(C)CNc1c(C#N)cnc2c(C#N)cc(N[C@@H](c3ccc(F)cc3)c3cn(C4(c5cccnc5)CC4)nn3)cc12` [Example 974, (S)-6-(((4-fluorophenyl)(1-(1-(pyridin-3-yl)cyclopropyl)-1H-1,2,3-triazol-4-yl)methyl)amino)-4-(neopentylamino) quinoline-3,8-dicarbonitrile], for which, in assay [1], the 50% effective concentration (EC50) worked out at 0.046 µM. Also, in assay [2], the half-inhibitory concentration (IC50) worked out at 0.046 µM.

`CC(C)(C)CNc1c(C#N)cnc2c(C#N)cc(N[C@@H](c3ccccc3)c3cn(C4(C(N)=O)CC4)nn3)cc12` [Example 975, (S)-1-(4-(((3,8-dicyano-4-(neopentylamino)quinolin-6-yl)amino)(phenyl)methyl)-1H-1,2,3-triazol-1-yl)cyclopropane-1-carboxamide]: in assay [1], the EC50 was determined as 0.321 µM. The IC50 in assay [2] came to 0.003 µM.

For the compound `CC(C)(C)CNc1c(C#N)cnc2c(C#N)cc(N[C@@H](c3ccc(F)cc3)c3cn(C4(C#N)CC4)nn3)cc12` [Example 976, (S)-6-(((1-(1-cyanocyclopropyl)-1H-1,2,3-triazol-4-yl)(4-fluorophenyl)methyl)amino)-4-(neopentylamino)quinoline-3,8-dicarbonitrile], the EC50 in assay [1] was found to be 0.058 µM. Besides, the 50% inhibitory concentration (IC50) in assay [2] was 0.006 µM.

`CC(C)(C)CNc1c(C#N)cnc2c(C#N)cc(N[C@@H](c3ccc(F)cc3)c3cn(C4(C(N)=O)CC4)nn3)cc12` [Example 977, (S)-1-(4-(((3,8-dicyano-4-(neopentylamino)quinolin-6-yl)amino)(4-fluorophenyl)methyl)-1H-1,2,3-triazol-1-yl)cyclopropane-1-carboxamide]: the 50% effective concentration (EC50) in assay [1] amounted to 0.285 µM. Moreover, the half-inhibitory concentration (IC50) in assay [2] was found to be 0.006 µM.

`CC(C)(C)CNc1c(C#N)cnc2c(C#N)cc(N[C@@H](c3ccc(F)cc3)c3cn(C4(C)CC4)nn3)cc12` [Example 978, (S)-6-(((4-fluorophenyl)(1-(1-methylcyclopropyl)-1H-1,2,3-triazol-4-yl)methyl)amino)-4-(neopentylamino)quinoline-3,8-dicarbonitrile]: in assay [1], the concentration for a half-maximal effect (EC50) amounted to 0.065 µM. Further, in assay [2], the IC50 came out at 0.005 µM.

In the case of `CC(C)(C)CNc1c(C#N)cnc2c(C#N)cc(N[C@@H](c3ccc(F)cc3)c3cn(C4(CO)CC4)nn3)cc12` [Example 979, (S)-6-(((4-fluorophenyl)(1-(1-(hydroxymethyl)cyclopropyl)-1H-1,2,3-triazol-4-yl)methyl)amino)-4-(neopentylamino)quinoline-3,8-dicarbonitrile], in assay [1], the EC50 is 0.103 µM. In addition, in assay [2], the 50% inhibitory concentration (IC50) stood at 0.004 µM.

As for `[2H][C@](Nc1cc(Cl)c2ncc(C#N)c(NCC(C)(C)C)c2c1)(c1ccc(Cl)cc1)c1cn(C2CCN(C3CC3)CC2)nn1` [Example 982, (S)-8-chloro-6-(((4-chlorophenyl)(1-(1-cyclopropylpiperidin-4-yl)-1H-1,2,3-triazol-4-yl)methyl-d)amino)-4-(neopentylarnino) quinoline-3-carbonitrile], the concentration for a half-maximal effect (EC50) in assay [1] worked out at 0.54 µM. Besides, the IC50 in assay [2] was found to be 0.023 µM.

As for `CC(C)(C)CNc1c(C#N)cnc2c(C#N)cc(N[C@@H](c3ccc(F)cc3)c3cn(C4(c5ccncc5)CC4)nn3)cc12` [Example 983, (S)-6-(((4-fluorophenyl)(1-(1-(pyridin-4-yl)cyclopropyl)-1H-1,2,3-triazol-4-yl)methyl)amino)-4-(neopentylamino) quinoline-3,8-dicarbonitrile], the EC50 in assay [1] stood at 0.039 µM. The IC50 in assay [2] stood at 0.011 µM.

In the case of `CC(C)(C)CNc1c(C#N)cnc2c(C#N)cc(N[C@@H](c3ccc(F)cc3)c3cn(C4(c5cnccn5)CC4)nn3)cc12` [Example 984, (S)-6-(((4-fluorophenyl)(1-(1-(pyrazin-2-yl)cyclopropyl)-1H-1,2,3-triazol-4-yl)methyl)amino)-4-(neopentylamino)quinoline-3,8-dicarbonitrile], in assay [1], the EC50 worked out at 0.093 µM. In addition, the IC50 in assay [2] amounted to 0.125 µM.
